Results as given in patent US5914313A, “1-[4-hydroxy-5-aminoethyloxy-N^2 -(10,12-dimethyl-1-oxotetradecyl)ornithine]-5-(3-hydroxyglutamine)-6-(3- hydroxyproline)echinocandin B, other aminoalkyl derivatives and salts thereof” (Merck & Co., Inc., priority 1993, dated 1999).

Legend:
Candida albicans MY 1055 [1] = assay: Minimum fungicidal concentration (MFC), microbroth dilution assay in YNBD; format: cell-based; conditions: YNBD medium; MFC = lowest concentration showing no growth or less than 4 colonies per spot
From the text: (§1) The compounds of the present invention are active against many fungi and as previously indicated particularly against Candida species. The antifungal properties may be illustrated with the minimum fungicidal concentration (MFC) determination against certain Candida organisms in a microbroth dilution assay carried out in a Yeast Nitrogen Base (Difco) medium with 1 percent dextrose (YNBD).
(§2) In carrying out the assay, Compound I was solubilized in 10 percent dimethyl sulfoxide (DMSO) and diluted to 2560 μg/ml. The compound was then diluted to 256 μg/ml in YNBD. 0.15 mL of the suspension was dispensed to the top row of a 96-well plate (each well containing 0.15 ml of YNBD) resulting in a drug concentration of 128 μg/ml. Two-fold dilutions were then made from the top row to obtain final drug concentrations ranging from 128 to 0.06 μg/ml.
(§3) The yeast cultures, maintained on Sabouraud dextrose agar were transferred to YN broth (Difco) and incubated overnight at 35° C. with shaking (250 rpm). After incubation, each culture was diluted in sterile water to yield a final concentration of 1-5×10^6 colony forming units (CFU)/ml.
(§4) 96-well microplates were inoculated using a MIC-2000 (Dynatech) which delivers […] per well yielding a final inoculum per well of 1.5-7.5×10^3 cells. The microplates were incubated at 35° C. for 24 hours. The minimum inhibitory concentrations (MICs) were recorded as the lowest concentrations of drug showing no visible growth.
(§5) After recording the MIC, the plates were shaken to resuspend the cells. Thereafter, 1.5 μl samples from the wells in the 96-well microplate were transferred to a single well tray containing Sabouraud dextrose agar. The inoculated trays were incubated 24 hours at 28° C. and then read for minimum fungicidal concentration (MFC). MFC is defined as the lowest concentration of drug showing no growth or less than 4 colonies per spot.

[2] = system: Candida tropicalis MY 1012; assay: as above; format: cell-based; conditions: YNBD medium; MFC = lowest concentration showing no growth or less than 4 colonies per spot
From the text: as §1, §2, §3, §4, §5

Candida albicans MY 1055 [3] = assay: In vivo effectiveness: recoverable Candida CFU in kidneys of infected mice; conditions: 0.4 mg/kg I.P. twice daily for four consecutive days; DBA/2 mice; kidneys after seven days
Experimental: Growth from an overnight SDA culture of Candida albicans MY 1055 was suspended in sterile saline and the cell concentration determined by hemacytometer count and the cell suspension adjusted to 3.75×10^5 cells/ml. Then 0.2 milliliter of this suspension was administered I.V. in the tail vein of mice so that the final inoculum was 7.5×10^4 cells/mouse.
The assay then was carried out by administering aqueous solutions of Compound I (R1 =--CH2 CH2 NH2) at various concentrations intraperitoneally (I.P.), twice daily (b.i.d.) for four consecutive days to 18 to 20 gram female DBA/2 mice, which previously had been infected with Candida albicans (MY 1055) in the manner described above. Distilled water was administered I.P. to C. albicans challenged mice as controls. After seven days, the mice were sacrificed by carbon dioxide gas, paired kidneys were removed aseptically and placed in sterile polyethylene bags containing 5 milliters of sterile saline. The kidneys were homogenized in the bags, serially diluted in sterile saline and aliquots spread on the surface of SDA plates. The plates were incubated at 35° C. for 48 hours and yeast colonies were enumerated for determination of colony forming units (CFU) per-gram of kidneys.

Pneumocystis carinii = Pneumocystis carinii pneumonia in immunosuppressed rats, reduction of cysts; format: in vivo, Sprague-Dawley rats; conditions: subcutaneous, twice daily for four days
Experimental: The compounds of the present invention may also be useful for inhibiting or alleviating Pneumocvstis carinii infections in immune compromised patients. […] Before drug treatment, two rats are sacrificed to confirm the presence of Pneumocystis carinii pneumonia (PCP). Five rats (weighing approximately 150 grams) are injected twice daily for four days subcutaneously (sc) with Compound I in 0.25 ml of vehicle (distilled water). A vehicle control is also carried out. All animals continue to receive dexasone in the drinking water and low protein diet during the treatment period. At the completion of the treatment, all animals are sacrificed, the lungs are removed and processed, and the extent of disease determined by microscopic examination of stained slides for the presence of cysts.
The dosage required for 90 percent reduction of cysts with representative compounds may be seen in the following table: […]

Candida albicans MY 1750 = assay: Minimum fungicidal concentration (MFC), separate similar experiment; format: cell-based
From the text: as §1
as §2, with “0.06 μg/ml. […]” for “0.06 μg/ml.”
96-well microplates were inoculated using a MIC-2000 (Dynatech) which delivers […] per well yielding a final inoculum per well of 1.5-7.5×10^3 cells. […] The minimum inhibitory concentrations (MICs) were recorded as the lowest concentrations of drug showing no visible growth.
After recording the MIC, the plates were shaken to resuspend the cells. […] The inoculated trays were incubated 24 hours at 28° C. and then read for minimum fungicidal concentration (MFC). […]

human blood cells = assay: Red blood cell lysis, minimum lytic concentration (MLC); format: cell-based; conditions: 2 hours at room temperature, lowest concentration giving complete or partial lysis, tested 400 to 0.20 μg/ml
From the text: A harmful and potentially fatal side reaction of a number of drugs including certain antibiotically active echinocandin compounds is red blood cell lysis. […] The blood cell lysis property may be seen in the determination carried out in the following manner.
The blood employed is a 4 percent suspension of freshly drawn heparinized blood prepared by adding 2 milliliters of blood to 50 milliliters of sterile 5 percent dextrose.
Compoufid I was solubilized in a small volume of dimethylsulfoxide (DMSO) that was then diluted with distilled water to a final concentration of 5 percent DMSO to obtain a drug solution of 4.0 mg/ml. A 0.2 milliliter amount of the drug solution was added to 1.4 milliliters of sterile 5 percent dextrose to obtain the test solution. A diluent control was also prepared.
A 96-well microtiter plate with a well volume of 0.35 ml was used for the assay. Columns 2-12 were filled with 150 µl of sterile 5 percent dextrose. Then, 300 μl of test solutions were dispensed into the wells in column 1 and serially two-fold diluted in 5 percent dextrose to yield final test concentrations of from 400 to 0.20 μg/ml. 38 μl of red blood cell suspension were added to each well, the plate was gently agitated to mix the well contents and incubated at room temperature for 2 hours, and thereafter observed to determine extent of hemolysis as indicated by complete or partial clearing (lysis).

Substance	MFC C. albicans MY 1055 (Candida albicans MY 1055 [1]) [µg/mL]	MFC C. tropicalis MY 1012 [2] [µg/mL]	reduction of recoverable Candida CFUs (kidneys) (Candida albicans MY 1055 [3])	dosage required for 90 percent reduction of cysts (Pneumocystis carinii) [mg/kg]	MFC C. albicans MY 1750 (Candida albicans MY 1750) [µg/mL]	MLC (minimum lytic concentration) (human blood cells) [µg/mL]
1-[4-hydroxy-5-aminoethyloxy-N^2 -(10,12-dimethyl-1-oxotetradecyl)ornithine]-5-(3-hydroxyglutamine)-6-(3-hydroxyproline) echinocandin B trifluoroacetate [--CH2 CH2 NH2 / DMTD]	0.125	0.25	greater than 99%			
Glycylaminoethyloxy Ether as the Trifluoroacetate [--CH2 CH2 NHCOCH2 NH2 / DMTD]	1.0	0.5		0.04	0.50	> 400
